In paper PMC6522510 (Nature Communications, 2019):
Like-named read-outs stand apart in the source and are kept apart here.

How the values were obtained:
Set-up in all cases: species or system AML cell lines (8); Primary HTS, single concentration about 10 uM, Cell Titer Glo viability; log10 luminescence, per cent inhibition relative to cycloheximide control
Conditions in all cases: 72 h, relative to cycloheximide control, log10 luminescence, inhibitor
[1] = tested on: CHRF288-11
[2] = tested on: M07e
[3] = tested on: U937
[4] = tested on: CMS
[5] = tested on: MV4-11
[6] = tested on: ML-2
[7] = tested on: MOLM-13
[8] = tested on: CMK

SMILES	CHRF288-11 %inh [1]	M07e %inh [2]	U937 %inh [3]	CMS %inh [4]	MV4-11 %inh [5]	ML-2 %inh [6]	MOLM-13 %inh [7]	CMK %inh [8]	CHRF288-11 %inh ([1]; CHRF288-11 %inh, 10 µM)	M07e %inh ([2]; M07e %inh, 10 µM)	U937 %inh ([3]; U937 %inh, 10 µM)	CMS %inh ([4]; CMS %inh, 10 µM)	MV4-11 %inh ([5]; MV4-11 %inh, 10 µM)	ML-2 %inh ([6]; ML-2 %inh, 10 µM)	MOLM-13 %inh ([7]; MOLM-13 %inh, 10 µM)	CMK %inh ([8]; CMK %inh, 10 µM)
C[C@H](CS(C)(=O)=O)Nc1ncc2cc(Oc3ccc(F)cc3F)c(=O)n(C)c2n1 [SJ000581059-1]	14.97%	5.493%	2.611%	4.304%	-0.5733%	1.6%	-1.998%	-5.286%	–	–	–	–	–	–	–	–
O=C(O)c1cc(-c2ccc(F)cc2F)ccc1O [SJ000285738-4, DIFLUNISAL]	-4.662%	2.006%	4.296%	0.6702%	3.937%	-0.2454%	1.208%	-0.9892%	–	–	–	–	–	–	–	–
CN1C(C(=O)Nc2ccccn2)=C(O)c2ccccc2S1(=O)=O [SJ000285539-8, PIROXICAM]	–	–	–	–	–	–	–	–	-0.4698%	1.469%	-0.5241%	1.221%	0.9197%	0.7358%	-0.7172%	-3.417%
Nc1[nH]nc2nnc(-c3c(-c4ccccc4)nn4ccccc34)cc12 [SJ000773182-1, FR 180204]	4.206%	4.808%	0.5636%	0.8706%	11.54%	1.644%	10.92%	2.552%	–	–	–	–	–	–	–	–
O=C(Nc1n[nH]c2cc(-c3ccccc3)ccc12)C1CC1 [SJ000573067-1, VB100064-117A1]	40.96%	17.84%	46.5%	3.176%	0.9726%	19.77%	40.31%	85.27%	–	–	–	–	–	–	–	–
O=C1NC(=NCc2ccccc2)S/C1=C\c1ccc2ncccc2c1 [SJ000581073-1]	5.173%	12.28%	3.079%	5.2%	27.42%	2.983%	18.77%	48.96%	–	–	–	–	–	–	–	–
Cn1cc(C2=C(c3ccccc3[N+](=O)[O-])C(=O)NC2=O)c2ccccc21 [SJ000581119-1]	24.65%	28.37%	6.728%	101.9%	44.46%	6.35%	15.35%	89.69%	–	–	–	–	–	–	–	–
Cc1ccccc1-n1c(Cn2cnc3c(N)ncnc32)nc2cccc(C)c2c1=O [SJ000571308-2, IC-87114 | PIK 293]	10.49%	-1.447%	0.4255%	-0.8579%	3.81%	1.318%	2.064%	-7.948%	–	–	–	–	–	–	–	–
Cc1c(F)c(N2CCNC(C)C2)cc2c1c(=O)c(C(=O)O)cn2C1CC1 (stereo not shown) [SJ000556748-1, GREPAFLOXACIN]	7.335%	-0.4769%	0.03292%	-1.062%	-0.8156%	-2.485%	27.08%	-2.149%	–	–	–	–	–	–	–	–
O=C(Nc1ccc(Oc2ccc3[nH]c(NC(=O)c4ccccc4)nc3c2)cc1)Nc1cc(C(F)(F)F)ccc1F [SJ000573149-1, T261/94/4]	9.652%	22.27%	43.21%	32.92%	91.44%	33.71%	108.7%	59.46%	–	–	–	–	–	–	–	–
CCn1c(-c2nonc2N)nc2c(C#CCN)ncc(OCCCN)c21 [SJ000573339-1, N3180-25-A1]	1.457%	-1.392%	1.188%	4.589%	3.433%	0.8489%	6.465%	3.187%	–	–	–	–	–	–	–	–
CCC[C@@H]1CC2=CC(=O)CC[C@]2(C)[C@H]2CC[C@@]3(C)[C@@H](CC[C@@]34CCC(=O)O4)[C@H]12 [SJ000546508-1, RU 26752]	-0.7374%	0.5508%	-0.3202%	0.3867%	1.882%	2.095%	-0.802%	-5.773%	–	–	–	–	–	–	–	–
C[C@H](CS)C(=O)N1CCC[C@H]1C(=O)O [SJ000286908-9, CAPTOPRIL]	–	–	–	–	–	–	–	–	-5.11%	0.8569%	-2.673%	0.9516%	1.577%	-0.6374%	-1.689%	-4.021%
CN1CCC(C(=O)Nc2n[nH]c3nc(-c4ccc(O)cc4)c(Br)cc23)CC1 [SJ000573086-1, RW100084-040A1 | AN100368-077A1]	–	–	–	–	–	–	–	–	69.8%	88.26%	86.11%	85%	81.01%	63.69%	112.8%	70.81%
CC(C)=CCC/C(C)=C/CC/C(C)=C/CO [SJ000286702-2, FARNESOL]	-1.355%	1.694%	-0.4236%	-1.627%	-0.08153%	1.139%	-0.6204%	-1.858%	–	–	–	–	–	–	–	–
CC(C)=CCC[C@]1(C)[C@@H](CC=C(C)C)C[C@@]2(CC=C(C)C)C(=O)[C@]1(C(=O)C(C)C)C(=O)C(CC=C(C)C)=C2O [SJ000561062-1, HYPERFORIN]	6.256%	1.526%	1.156%	-0.1771%	2.302%	4.019%	0.05204%	3.171%	–	–	–	–	–	–	–	–
Cc1cccc(Nc2ccncc2S(=O)(=O)NC(=O)NC(C)C)c1 [SJ000286085-5, TORSEMIDE]	–	–	–	–	–	–	–	–	0.4254%	1.697%	-1.512%	-2.109%	0.9899%	1.771%	-1.664%	-7.265%
